Here are results for one compound from article PMC5218480 (PLoS ONE, 2017).

In the test the test system is MV-4-11 cells. As to the kind of experiment: Gene expression microarray analysis (Affymetrix PrimeView) and GSEA. It is filed as cell-based, human. Further details: RFU PODN (11730768_x_at) / Fold change /veh PODN (11730768_x_at) / RFU LINC00158 (11744669_a_at) / Fold change /veh LINC00158 (11744669_a_at) / RFU DUSP10 (11751237_a_at) / Fold change /veh DUSP10 (11751237_a_at) / RFU ID3 (11757404_x_at) / Fold change /veh ID3 (11757404_x_at) / RFU PLEKHG5 (11737974_s_at) / Fold change /veh PLEKHG5 (11737974_s_at) / RFU LRRC4B (11730491_at) / Fold change /veh LRRC4B (11730491_at) / RFU GIMAP4 (11747438_a_at) / Fold change /veh GIMAP4 (11747438_a_at) / RFU KRT8 (11758183_x_at) / Fold change /veh KRT8 (11758183_x_at) / RFU CNN1 (11734310_a_at) / Fold change /veh CNN1 (11734310_a_at) / RFU VPS37D (11726825_at) / Fold change /veh VPS37D (11726825_at) / RFU C10orf10 (11716522_x_at) / Fold change /veh C10orf10 (11716522_x_at) / RFU KIR2DL2 /// KIR2DL4 /// KIR2DL5A /// KIR2DL5B /// KIR2DS1 /// KIR2DS2 /// KIR2DS3 /// KIR2DS4 /// KIR3DL3 /// KIR3DL3 /// KIR3DS1 (11738374_at) / Fold change /veh KIR2DL2 /// KIR2DL4 /// KIR2DL5A /// KIR2DL5B /// KIR2DS1 /// KIR2DS2 /// KIR2DS3 /// KIR2DS4 /// KIR3DL3 /// KIR3DL3 /// KIR3DS1 (11738374_at) / RFU C1QL1 (11718748_at) / Fold change /veh C1QL1 (11718748_at) / RFU TMPRSS4 (11747572_a_at) / Fold change /veh TMPRSS4 (11747572_a_at) / RFU HAMP (11756126_x_at) / Fold change /veh HAMP (11756126_x_at) / RFU RNFT2 (11725882_a_at) / Fold change /veh RNFT2 (11725882_a_at) / RFU NR4A2 (11747474_a_at) / Fold change /veh NR4A2 (11747474_a_at) / RFU ABCC12 (11746883_a_at) / Fold change /veh ABCC12 (11746883_a_at) / RFU TMEM136 (11760407_x_at) / Fold change /veh TMEM136 (11760407_x_at) / RFU CLDN22 /// WWC2 (11732394_at) / Fold change /veh CLDN22 /// WWC2 (11732394_at) / RFU HLA-DPB1 (11760878_x_at) / Fold change /veh HLA-DPB1 (11760878_x_at) / RFU SPINT1 (11716480_a_at) / Fold change /veh SPINT1 (11716480_a_at) / RFU GAP43 (11754022_s_at) / Fold change /veh GAP43 (11754022_s_at) / RFU A4GNT (11735810_at) / Fold change /veh A4GNT (11735810_at) / RFU PRB3 (11715151_x_at) / Fold change /veh PRB3 (11715151_x_at) / RFU TUBB4B (11761932_at) / Fold change /veh TUBB4B (11761932_at) / RFU CAPN14 (11732068_a_at) / Fold change /veh CAPN14 (11732068_a_at) / RFU TMCC2 (11721928_a_at) / Fold change /veh TMCC2 (11721928_a_at) / RFU IRGQ (11745062_a_at) / Fold change /veh IRGQ (11745062_a_at) / RFU FAM174B (11720279_a_at) / Fold change /veh FAM174B (11720279_a_at) / RFU TMPRSS4 (11748680_a_at) / Fold change /veh TMPRSS4 (11748680_a_at) / RFU FAM212B (11763350_a_at) / Fold change /veh FAM212B (11763350_a_at) / RFU PLEKHG5 (11743358_a_at) / Fold change /veh PLEKHG5 (11743358_a_at) / RFU ZSCAN30 (11745921_a_at) / Fold change /veh ZSCAN30 (11745921_a_at) / RFU CMKLR1 (11741424_a_at) / Fold change /veh CMKLR1 (11741424_a_at) / RFU LOC101060620 /// MAPK8IP1 (11723275_at) / Fold change /veh LOC101060620 /// MAPK8IP1 (11723275_at) / RFU SPTSSB (11747773_x_at) / Fold change /veh SPTSSB (11747773_x_at) / RFU PRSS12 (11739890_at) / Fold change /veh PRSS12 (11739890_at) / RFU BIN1 (11741810_x_at) / Fold change /veh BIN1 (11741810_x_at) / RFU WNT11 (11732464_a_at) / Fold change /veh WNT11 (11732464_a_at) / RFU C10orf10 (11716521_a_at) / Fold change /veh C10orf10 (11716521_a_at) / RFU C5orf56 (11738089_at) / Fold change /veh C5orf56 (11738089_at) / RFU CYB561 (11721691_x_at) / Fold change /veh CYB561 (11721691_x_at) / RFU ANKRD19P (11752326_a_at) / Fold change /veh ANKRD19P (11752326_a_at) / RFU OR2T12 /// OR2T33 /// OR2T8 (11738714_s_at) / Fold change /veh OR2T12 /// OR2T33 /// OR2T8 (11738714_s_at) / RFU VCAN (11748164_a_at) / Fold change /veh VCAN (11748164_a_at) / RFU JSRP1 (11732532_at) / Fold change /veh JSRP1 (11732532_at) / RFU KRTAP10-11 (11738290_x_at) / Fold change /veh KRTAP10-11 (11738290_x_at) / RFU MYO3A (11730013_a_at) / Fold change /veh MYO3A (11730013_a_at) / RFU EBF3 (11725865_a_at) / Fold change /veh EBF3 (11725865_a_at) / RFU CAMK2N1 (11719241_x_at) / Fold change /veh CAMK2N1 (11719241_x_at) / RFU C5orf56 (11738088_a_at) / Fold change /veh C5orf56 (11738088_a_at) / RFU OLFML3 (11715873_a_at) / Fold change /veh OLFML3 (11715873_a_at) / RFU LOC100653217 /// NTM (11731650_a_at) / Fold change /veh LOC100653217 /// NTM (11731650_a_at) / RFU MAPK11 (11762145_a_at) / Fold change /veh MAPK11 (11762145_a_at) / RFU FIZ1 (11724087_x_at) / Fold change /veh FIZ1 (11724087_x_at) / RFU OASL (11726364_x_at) / Fold change /veh OASL (11726364_x_at) / RFU SOX15 (11748057_x_at) / Fold change /veh SOX15 (11748057_x_at) / RFU CD79A (11719716_a_at) / Fold change /veh CD79A (11719716_a_at) / RFU HIST1H1D (11736915_at) / Fold change /veh HIST1H1D (11736915_at) / RFU CASKIN2 (11723855_a_at) / Fold change /veh CASKIN2 (11723855_a_at) / RFU LOC730098 (11760151_x_at) / Fold change /veh LOC730098 (11760151_x_at) / RFU OR4N2 (11742367_at) / Fold change /veh OR4N2 (11742367_at) / RFU PRRT2 (11749266_a_at) / Fold change /veh PRRT2 (11749266_a_at) / RFU SNX32 (11753110_a_at) / Fold change /veh SNX32 (11753110_a_at) / RFU CDHR5 (11726645_a_at) / Fold change /veh CDHR5 (11726645_a_at) / RFU RCAN1 (11760418_a_at) / Fold change /veh RCAN1 (11760418_a_at) / RFU FAM167A (11723789_a_at) / Fold change /veh FAM167A (11723789_a_at) / RFU FAM26E (11764081_at) / Fold change /veh FAM26E (11764081_at) / RFU ISYNA1 (11749810_s_at) / Fold change /veh ISYNA1 (11749810_s_at) / RFU ACY1 (11761880_at) / Fold change /veh ACY1 (11761880_at) / RFU 11764098_at / Fold change /veh 11764098_at / RFU SAMD14 (11745864_x_at) / Fold change /veh SAMD14 (11745864_x_at) / RFU NPB (11741838_a_at) / Fold change /veh NPB (11741838_a_at) / RFU TMPRSS6 (11731388_a_at) / Fold change /veh TMPRSS6 (11731388_a_at) / RFU KRTAP10-2 (11738614_at) / Fold change /veh KRTAP10-2 (11738614_at) / RFU ARHGAP8 /// PRR5-ARHGAP8 (11727945_x_at) / Fold change /veh ARHGAP8 /// PRR5-ARHGAP8 (11727945_x_at) / RFU KRTAP5-7 /// NADSYN1 (11734609_at) / Fold change /veh KRTAP5-7 /// NADSYN1 (11734609_at) / RFU RASL12 (11751679_a_at) / Fold change /veh RASL12 (11751679_a_at) / RFU CDKN2B (11736163_a_at) / Fold change /veh CDKN2B (11736163_a_at) / RFU PRF1 (11729649_at) / Fold change /veh PRF1 (11729649_at) / RFU, ZNF638 /// ZNF638-IT1 / Fold change vs veh, ZNF638 /// ZNF638-IT1 / RFU, PANK3 / Fold change vs veh, PANK3 / RFU, SH3YL1 / Fold change vs veh, SH3YL1 / RFU, ZEB2 / Fold change vs veh, ZEB2 / RFU, NRIP1 / Fold change vs veh, NRIP1 / RFU, PTTG1IP / Fold change vs veh, PTTG1IP / RFU, CAPN2 / Fold change vs veh, CAPN2 / RFU, MED14 / Fold change vs veh, MED14 / RFU, SNORA58 / Fold change vs veh, SNORA58 / RFU, C1orf63 / Fold change vs veh, C1orf63 / RFU, LRRFIP1 / Fold change vs veh, LRRFIP1 / RFU, NDUFAF7 / Fold change vs veh, NDUFAF7 / RFU, SLC12A2 / Fold change vs veh, SLC12A2 / RFU, IBTK / Fold change vs veh, IBTK / RFU, ESF1 / Fold change vs veh, ESF1 / Fold change vs veh, TMEM50B / RFU, TAOK1 / Fold change vs veh, TAOK1 / RFU, ACBD3 / Fold change vs veh, ACBD3 / RFU, TMA16 / Fold change vs veh, TMA16 / RFU, RWDD3 / Fold change vs veh, RWDD3 / RFU, BCAT1 / Fold change vs veh, BCAT1 / RFU, EDEM3 / Fold change vs veh, EDEM3 / RFU, TMEM33 / Fold change vs veh, TMEM33 / RFU, WDR75 / Fold change vs veh, WDR75 / RFU, AHCTF1 / Fold change vs veh, AHCTF1 / RFU, TFRC / Fold change vs veh, TFRC / RFU, ZDHHC17 / Fold change vs veh, ZDHHC17 / RFU, NOM1 / Fold change vs veh, NOM1 / RFU, ARL8B / Fold change vs veh, ARL8B / RFU, ZBTB11 / Fold change vs veh, ZBTB11 / RFU, TAMM41 / Fold change vs veh, TAMM41 / RFU, KIAA1704 /// LOC100996395 / Fold change vs veh, KIAA1704 /// LOC100996395 / RFU, ING1 / Fold change vs veh, ING1 / RFU, TRMT61B / Fold change vs veh, TRMT61B / RFU, FUBP3 / Fold change vs veh, FUBP3 / RFU, TP53 / Fold change vs veh, TP53 / RFU, TNKS2 / Fold change vs veh, TNKS2 / RFU, ZFP14 / Fold change vs veh, ZFP14 / RFU, ACTR2 / Fold change vs veh, ACTR2 / RFU, PPP3R1 / Fold change vs veh, PPP3R1 / RFU, PIK3R1 / Fold change vs veh, PIK3R1 / RFU, HNRNPA1 / Fold change vs veh, HNRNPA1 / RFU, RNF170 / Fold change vs veh, RNF170 / RFU, ZNF28 / Fold change vs veh, ZNF28 / RFU, RNGTT / Fold change vs veh, RNGTT / RFU, OGT / Fold change vs veh, OGT / RFU, BRD1 / Fold change vs veh, BRD1 / RFU, MARS / Fold change vs veh, MARS / RFU, ZNF655 / Fold change vs veh, ZNF655 / RFU, FAHD1 / Fold change vs veh, FAHD1 / RFU, BDP1 / Fold change vs veh, BDP1 / RFU, LRRCC1 / Fold change vs veh, LRRCC1 / RFU, ARID1A / Fold change vs veh, ARID1A / RFU, ZNF146 / Fold change vs veh, ZNF146 / RFU, ZNF330 / Fold change vs veh, ZNF330 / RFU, GPN3 / Fold change vs veh, GPN3 / RFU, C9orf123 / Fold change vs veh, C9orf123 / RFU, N4BP2L2 / Fold change vs veh, N4BP2L2 / RFU, ARFIP1 / Fold change vs veh, ARFIP1 / RFU, FAM179B / Fold change vs veh, FAM179B / RFU, BCL10 / Fold change vs veh, BCL10 / RFU, UHRF1BP1L / Fold change vs veh, UHRF1BP1L / RFU, BET1 / Fold change vs veh, BET1 / RFU, CNOT2 / Fold change vs veh, CNOT2 / RFU, ZNF268 / Fold change vs veh, ZNF268 / Fold change vs veh, ZNF507 / RFU, DGCR2 / Fold change vs veh, DGCR2 / RFU, WDSUB1 / Fold change vs veh, WDSUB1 / Fold change vs veh, HSP90B1 /// MIR3652 / RFU, ADSS / Fold change vs veh, ADSS / RFU, GK / Fold change vs veh, GK / RFU, ZNF148 / Fold change vs veh, ZNF148 / RFU, TAF9 / Fold change vs veh, TAF9 / RFU, SLC1A5 / Fold change vs veh, SLC1A5 / RFU, SLMO2 / Fold change vs veh, SLMO2 / RFU, ABCC4 / Fold change vs veh, ABCC4 / RFU, LOC101060439 /// RAP1B / Fold change vs veh, LOC101060439 /// RAP1B / RFU, RFX7 / Fold change vs veh, RFX7 / RFU, GTPBP10 / Fold change vs veh, GTPBP10 / RFU, CNEP1R1 / Fold change vs veh, CNEP1R1 / RFU, BIVM-ERCC5 /// ERCC5 / Fold change vs veh, BIVM-ERCC5 /// ERCC5 / RFU, ILF3 / Fold change vs veh, ILF3 / RFU 11762660_at / Fold change /veh 11762660_at / RFU VCAN (11757783_s_at) / Fold change /veh VCAN (11757783_s_at) / RFU DDX43 (11728927_at) / Fold change /veh DDX43 (11728927_at) / RFU KRT8 (11758188_x_at) / Fold change /veh KRT8 (11758188_x_at) / RFU NKD1 (11759106_at) / Fold change /veh NKD1 (11759106_at) / RFU SRD5A1 (11742802_a_at) / Fold change /veh SRD5A1 (11742802_a_at) / RFU TPSAB1 /// TPSB2 (11721975_s_at) / Fold change /veh TPSAB1 /// TPSB2 (11721975_s_at) / RFU GSTM3 (11746129_a_at) / Fold change /veh GSTM3 (11746129_a_at) / RFU IL23R (11737362_x_at) / Fold change /veh IL23R (11737362_x_at) / RFU TMEM51 (11727254_a_at) / Fold change /veh TMEM51 (11727254_a_at) / RFU PIWIL2 (11732686_x_at) / Fold change /veh PIWIL2 (11732686_x_at) / RFU ORM1 (11744905_x_at) / Fold change /veh ORM1 (11744905_x_at) / RFU CCDC152 (11743942_at) / Fold change /veh CCDC152 (11743942_at) / RFU ECM1 (11717891_a_at) / Fold change /veh ECM1 (11717891_a_at) / RFU IL23R (11748794_a_at) / Fold change /veh IL23R (11748794_a_at) / RFU TNFAIP8L3 (11732012_x_at) / Fold change /veh TNFAIP8L3 (11732012_x_at) / RFU MBOAT4 (11741988_at) / Fold change /veh MBOAT4 (11741988_at) / RFU 11764193_at / Fold change /veh 11764193_at / RFU TMEM53 (11763286_at) / Fold change /veh TMEM53 (11763286_at) / RFU MAGEB2 (11727129_at) / Fold change /veh MAGEB2 (11727129_at) / RFU TMEM200A (11744735_a_at) / Fold change /veh TMEM200A (11744735_a_at) / RFU CCDC152 (11751479_a_at) / Fold change /veh CCDC152 (11751479_a_at) / RFU FAM211A (11726209_a_at) / Fold change /veh FAM211A (11726209_a_at) / RFU RGS16 (11746705_a_at) / Fold change /veh RGS16 (11746705_a_at) / RFU VCAN (11755009_s_at) / Fold change /veh VCAN (11755009_s_at) / RFU RHOB (11743442_s_at) / Fold change /veh RHOB (11743442_s_at) / RFU RGS16 (11720943_a_at) / Fold change /veh RGS16 (11720943_a_at) / RFU RGS16 (11720944_at) / Fold change /veh RGS16 (11720944_at) / RFU, VPS4B / Fold change vs veh, VPS4B / RFU, CREB1 / Fold change vs veh, CREB1 / RFU, DNAJC13 / Fold change vs veh, DNAJC13 / RFU, GNAQ / Fold change vs veh, GNAQ / RFU, CDK5R1 / Fold change vs veh, CDK5R1 / RFU, ZRANB3 / Fold change vs veh, ZRANB3 / RFU, CUL4A / Fold change vs veh, CUL4A / RFU, CCNY / Fold change vs veh, CCNY / RFU, UFL1 / Fold change vs veh, UFL1 / RFU, COG3 / Fold change vs veh, COG3 / RFU, DIAPH2 / Fold change vs veh, DIAPH2 / RFU, SKA2 / Fold change vs veh, SKA2 / RFU, AFF3 / Fold change vs veh, AFF3 / RFU, LMF1 / Fold change vs veh, LMF1 / RFU, IPO11 / Fold change vs veh, IPO11 / RFU, DFFB / Fold change vs veh, DFFB / RFU, FOXP1 / Fold change vs veh, FOXP1 / RFU, CARD8 / Fold change vs veh, CARD8 / RFU, STRN3 / Fold change vs veh, STRN3 / RFU, ADK / Fold change vs veh, ADK / RFU, RASSF2 / Fold change vs veh, RASSF2 / RFU, WIPF1 / Fold change vs veh, WIPF1 / RFU, LARP1B / Fold change vs veh, LARP1B / RFU, RASA1 / Fold change vs veh, RASA1 / RFU, RB1 / Fold change vs veh, RB1 / RFU, PPFIA1 / Fold change vs veh, PPFIA1 / RFU, MAT2A / Fold change vs veh, MAT2A / RFU, CCT5 / Fold change vs veh, CCT5 / RFU, WDR92 / Fold change vs veh, WDR92 / RFU, CUX1 / Fold change vs veh, CUX1 / RFU, TTC7A / Fold change vs veh, TTC7A / RFU, TMEM135 / Fold change vs veh, TMEM135 / RFU, DEPTOR / Fold change vs veh, DEPTOR / RFU, CPM / Fold change vs veh, CPM / RFU, DNAJB6 / Fold change vs veh, DNAJB6 / RFU, CACNA2D3 / Fold change vs veh, CACNA2D3 / RFU, DTX4 / Fold change vs veh, DTX4 / RFU, TFCP2 / Fold change vs veh, TFCP2 / RFU, GMCL1 /// GMCL1P1 / Fold change vs veh, GMCL1 /// GMCL1P1 / RFU, AEBP2 / Fold change vs veh, AEBP2 / RFU, SNHG1 /// SNORD22 /// SNORD25 /// SNORD26 /// SNORD27 /// SNORD28 /// SNORD29 /// SNORD31 / Fold change vs veh, SNHG1 /// SNORD22 /// SNORD25 /// SNORD26 /// SNORD27 /// SNORD28 /// SNORD29 /// SNORD31 / Fold change (Aza/veh), C12orf56 (ProbeSet 11735607_a_at) / Fold change (ACY-1035/veh), C12orf56 (ProbeSet 11735607_a_at) / Fold change (Aza/veh), FGFR1OP (ProbeSet 11751329_s_at) / Fold change (ACY-1035/veh), FGFR1OP (ProbeSet 11751329_s_at) / Fold change (Aza/veh), VPS36 (ProbeSet 11739960_a_at) / Fold change (ACY-1035/veh), VPS36 (ProbeSet 11739960_a_at) / RFU SYPL1 (11715823_x_at) / Fold change /veh SYPL1 (11715823_x_at) / RFU IGFBP7 (11715501_s_at) / Fold change /veh IGFBP7 (11715501_s_at) / RFU REEP3 (11722064_at) / Fold change /veh REEP3 (11722064_at) / RFU IGLL1 (11728026_x_at) / Fold change /veh IGLL1 (11728026_x_at): dose or concentration left out as unconfirmed. The settings on record: ProbeSet 11745260_x_at; LIST B.

As for `Nc1ncn([C@@H]2O[C@H](CO)[C@@H](O)[C@H]2O)c(=O)n1` [azacitidine], the “RFU, SLC12A2” value came out at 29.09 RFU.
